pEC50: −log10 of the molar value. Entries after “also recorded” stand apart in the source; their conditions may differ.
Experiments:
coronin 1 mRNA = assay: Quantitative PCR of coronin 1 mRNA in RBL cells; assay type: cell-based, Rat; details: 3.5 μg/ml, 7 days
Method: The plasmids were independently transfected into immune cells (Rat basophil Leukemia, RBL cells) to generate green and red fluorescent RBL cells that were subsequently enriched by means of flow cytometry. These cells were then mixed in equal ratio (1:1) and incubated in a 96 well plate at 100,000 cells/well in a volume of 200 μl of phenol red free RPMI supplemented with 8% fetal calf serum, L-glutamate and antibiotics (penicillin, streptomycin) and various compounds (3 and 5 μg/ml concentrations) from available chemical libraries. At defined time points (8 h, 24 h and 48 h), the GFP and RFP fluorescence was measured using a 96 well microplate reader (Synergy, BioTek Instruments). […] Selected compounds show different levels of modulation of coronin 1 promoter driven GFP and CMV promoter driven RFP fluorescence. GFP and RFP fluorescence were analyzed with a microplate reader upon incubation with the top coronin 1 promoter inhibiting compounds. […] Cells were imaged using a fluorescence microscope to validate fluorescence inhibition (FIG. 3A) and as well assess morphology and viability (in addition to GFP down regulation confirmation). In addition, quantitative Polymerase Chain Reaction (qPCR) for coronin 1 mRNA transcripts reveal reduction with compound 11 (FIG. 3B). […]

[1] = system: early cytomegalovirus promoter; assay: Screening assay control: CMV promoter driven RFP in RBL cells (microplate reader); assay type: cell-based; details: 5 μg/ml, 48 h, microplate reader, DMSO = 100, read-out: RFP values (%)
Method: As an unrelated promoter, the early cytomegaloviral promoter element was cloned into a promoterless Red Fluorescence Protein (RFP) expression plasmid. Rat Basophil Leukemia (RBL) cells were transfected with the plasmid, stable RFP expressing cells enriched, incubated with various compounds and were assessed for red fluorescence values. Analyzing the inhibition of an unrelated promoter (in this case, early cytomegalovirus promoter) that drove Red Fluorescence Protein (RFP) expression assessed non-specificity of the compound under analysis.
(§1) The plasmids were independently transfected into immune cells (Rat basophil Leukemia, RBL cells) to generate green and red fluorescent RBL cells that were subsequently enriched by means of flow cytometry. These cells were then mixed in equal ratio (1:1) and incubated in a 96 well plate at 100,000 cells/well in a volume of 200 μl of phenol red free RPMI supplemented with 8% fetal calf serum, L-glutamate and antibiotics (penicillin, streptomycin) and various compounds (3 and 5 μg/ml concentrations) from available chemical libraries. At defined time points (8 h, 24 h and 48 h), the GFP and RFP fluorescence was measured using a 96 well microplate reader (Synergy, BioTek Instruments). […] Selected compounds show different levels of modulation of coronin 1 promoter driven GFP and CMV promoter driven RFP fluorescence. GFP and RFP fluorescence were analyzed with a microplate reader upon incubation with the top coronin 1 promoter inhibiting compounds. Shown are percentage of GFP reduction (left column) and percentage of RFP reduction (right column) for the compounds at 5 μg/ml concentration at 48 h. Cycloheximide (CHX) serves as positive control whereas media and DMSO serve as negative controls. […] Cells were imaged using a fluorescence microscope to validate fluorescence inhibition (FIG. 3A) and as well assess morphology and viability (in addition to GFP down regulation confirmation). In addition, quantitative Polymerase Chain Reaction (qPCR) for coronin 1 mRNA transcripts reveal reduction with compound 11 (FIG. 3B). The primers used for the qPCR on RBL cells are listed below as follows;

coronin 1 promoter = assay: Fluorescence-based screening assay: coronin 1 promoter driven GFP in RBL cells (microplate reader / microscopy); assay type: cell-based; details: 48 h
Method: The murine coronin 1 promoter sequences of SEQ ID NO: 1-6 were each cloned into a plasmid lacking a promoter (promoterless) but containing a destabilized Green Fluorescence Protein (GFP) cassette. Rat Basophil Leukemia (RBL) cells were transfected with the plasmids, stable GFP expressing cells were enriched, incubated with various compounds and assessed for coronin 1 promoter inhibition by assessing green fluorescence values (FIG. 2).
as §1, with “[…])” for “streptomycin) and various compounds (3 and 5 μg/ml concentrations)”

[2] = In vivo toxicity: hematological parameters (ADVIA) and body weight; details: 150 mg/kg/body weight, BD, IP, six-day administration
Method: Coronin 1 expression inhibitor (compound 11) was initially dissolved in DMSO at 100 mg/ml concentration. In parallel, a 50:50 solution of miglyol 812 and kolliphor EL (M+K) was prepared. Coronin 1 expression inhibitor: M+K was mixed at a ratio of 30:70 and vortexed for 5 minutes to make a homogenous suspension such that a final concentration of 30 mg/ml was obtained. 100 μl/mouse was subsequently administered either intraperitoneally or subcutaneously using an insulin syringe. The mice used for the study were separated into age and sex matched cohorts, weighed prior to start of the study and regularly monitored for body weight, behavioural changes, fur changes, faecal consistency and urine colour. […]

RBL cells [3] = assay: Cell viability by live-dead staining (cytotoxicity), flow cytometry; assay type: cell-based, Rat; details: Rattus norvegicus, RBL, cell viability via live/dead staining, 48-65 h, read-out: EC50 Toxicity
Method in brief: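 RBL cells with coronin 1 promoter-GFP, mixed 1:1 with CMV promoter-RFP RBL cells, exposed to compound 48-65 h. Flow cytometry read RFP fluorescence for non-specific promoter inhibition and live-dead staining for cytotoxicity. EC50 values derived; cycloheximide positive control, DMSO negative.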

CMV promoter = assay: EC50 analysis for CMV promoter driven RFP inhibition (non-specific activity) by flow cytometry in RBL cells; assay type: cell-based, cytomegalovirus; details: 48-65 h, read-out: EC50 RFP alteration
Method: RBL cells expressing GFP under coronin 1 promoter and optionally with RBL cells expressing RFP under CMV promoter were mixed in equal numbers and incubated with the compounds at indicated concentrations for 48-65 h and analyzed by flow cytometry for alteration in coronin 1 promoter (GFP fluorescence), CMV promoter (RFP fluorescence) values. In addition, the cells were labelled with live-dead marker for assessing cell viability status by flow cytometry. Cycloheximide (CHX) serves as positive control and DMSO serves as negative controls. Effective Concentration (EC50) values for coronin 1 promoter inhibition via GFP fluorescence analysis, non-specific promoter inhibition via CMV promoter driven-RFP fluorescence analysis and cell viability via live/dead staining as a measure for toxicity in flow cytometry for compounds (10-22 and 50a-65a) are shown in Table 6 and Table 7. Based on the EC50 analysis of the inhibition of coronin 1 promoter driven GFP fluorescence the (4S,7R)-configurated eutomers were identified (Structures FIG. 9A-C). This is exemplified for compounds containing two stereocenters by eutomers 11c and 13a. […] Subsequent EC50 evaluations (Table 7) were performed with compound 13a as standard for relative potency normalized to a value of 1.00 (relative potency calculated as [EC50 GFP inhibition 13a]/[EC50 GFP inhibition compound of interest]).

RBL cells [4] = assay: In vitro toxicity, Alamar blue assay; assay type: cell-based, Rat
Method: In vitro cytotoxicity tests were performed using Alamar blue (Invitrogen, USA) following manufacturers protocol. In brief, RBL cells pretreated with coronin 1 expression inhibitor or vehicle controls were reseeded and cultured in a 96-well plate at a concentration of 1×10^4 cells/ml of culture media. Alamar blue was added to the wells and further incubated at 37° C. for 4 h. The absorbance was measured at 600 nm using a microplate reader (Synergy, BioTek Instruments). DMSO and cycloheximide served as the vehicle and positive control respectively (FIG. 5A).

COC(=O)C1=C(C)NC2=C(C(=O)CC(c3ccccc3OC)C2)C1c1cccc(O)c1 (centres unmarked) [Comp. 11, methyl-4-(3-hydroxyphenyl)-7-(2-methoxyphenyl)-2-methyl-5-oxo-1,4,5,6,7,8-hexahydro-3-quinolinecarboxylate]
coronin 1 mRNA transcripts (qPCR) (coronin 1 mRNA): reduction in coronin 1 transcripts
activity at 5 µg/mL [1]: 111%
coronin 1 promoter driven GFP, imaged by microscope (coronin 1 promoter; 10 μg/ml, confocal microscope): selectively reduce GFP values; also recorded: selective reduction
activity at 5 µg/mL (coronin 1 promoter; RBL, 5 μg/ml, microplate reader, DMSO = 100, read-out: GFP values (%)): 35%
in vivo toxicity: hematological parameters (RBC, WBC, platelet counts, hemoglobin), body weight [2]: did not reveal any potential toxicity; also recorded: good safety and tolerability
pEC50 (RBL cells [3]): < 5.05
pEC50 (CMV promoter): < 5.05
in vitro toxicity by Alamar blue assay (RBL cells [4]): minimal toxicity

Reference: patent publication US20260102387A1, “IMMUNOSUPPRESSIVE COMPOUNDS” (UNIVERSITÄT BASEL, priority 2022, published 2026)
